The source of these data is patent US9968098B2, “Synergistic Bacillus thuringiensis subsp. aizawai, Bacillus thuringiensis subsp. kurstaki and cyantraniliprole mixtures for diamondback moth, beet armyworm, southwestern corn borer, and corn earworm” (Valent BioSciences LLC, priority 2016, dated 2018).

Assay [1] deals with corn earworm larvae. Kind of assay: Leaf dip test, corn earworm larvae. It is filed as in vivo. Conditions: Helicoverpa zea, foliar, Bta/Btk 2.6 ppm, cyantraniliprole 10.0 ppm, mixture 2.6 ppm + 10.0 ppm (Ratio 1:3.85), read-out: % Efficacy.
Experimental: In each example below, the studies were conducted as follows.
(§1) For these tests, standardized laboratory leaf dip methods were used to inoculate plant material with treatment(s). Dry, treated leaves were placed into Petri dishes (100×25 mm) containing filter paper wetted with 500 μl of distilled H2O (“dH2O”). Each dish was then infested with between 5 and 10 larvae, dependent on species. Efficacy ratings were taken at specified intervals. Synergy ratings were calculated for each test.
% Cexp=A+B−(AB/100), where % Cexp is the expected efficacy and “in which A and B are the control levels given by the single [insecticides]. […] Adopting a conservative approach, Applicant will determine if synergy is present at ratios of ≥1.15.
In this study, the response of corn earworm larvae to amounts of Bacillus thuringiensis subsp. aizawai, Bacillus thuringiensis subsp. kurstaki and cyantraniliprole was observed.
Bacillus thuringiensis subsp. aizawai/Bacillus thuringiensis subsp. kurstaki was applied at a concentration of 2.6 ppm (2.6 μg/ml). Cyantraniliprole was applied at a concentration of 10.0 ppm (10.0 μg/ml). The Bacillus thuringiensis subsp. aizawai/Bacillus thuringiensis kurstaki/cyantraniliprole mixture was applied at a concentration of 2.6 ppm Bacillus thuringiensis subsp. kurstaki/Bacillus thuringiensis subsp. aizawai and 10.0 ppm cyantraniliprole.
Assay [2] concerns sugarcane borer larvae. Briefly: Leaf dip test, sugarcane borer larvae. It is filed as in vivo. The following applies: Diatraea saccharalis, foliar, Bta/Btk 0.8125 ppm, cyantraniliprole 1.0 ppm, mixture 0.8125 ppm + 1.0 ppm (Ratio 1:1.23), read-out: % Efficacy.
Text: (§2) The following examples were used to determine the synergy of Bacillus thuringiensis subsp. aizawai, Bacillus thuringiensis subsp. kurstaki and cyantraniliprole when controlling diamondback moth, beet armyworm, sugarcane borer, soybean looper, corn earworm, cabbage looper, and southwestern corn borer. Sympatico™ emulsifiable suspension (available from Valent BioSciences LLC) was used as the source of Bacillus thuringiensis subsp. aizawai and Bacillus thuringiensis kurstaki. Sympatico™ contains about a 1:0.67 ratio of Bacillus thuringiensis subsp. kurstaki fermentation solids, spores and toxins to Bacillus thuringiensis subsp. aizawai fermentation solids, spores and toxins. Belt® was used as the source of cyantraniliprole. […] In each example below, the studies were conducted as follows.
as §1
(§3) % Cexp=A+B−(AB/100), where % Cexp is the expected efficacy and “in which A and B are the control levels given by the single [insecticides]. […]
Assay [3] concerns diamondback moth larvae. Briefly: Leaf dip test, diamondback moth larvae. Conditions: Plutella xylostella, foliar, Bta/Btk 0.8125 ppm, cyantraniliprole 0.12 ppm, mixture 0.8125 ppm + 0.12 ppm (Ratio 1:0.12), read-out: % Efficacy. It is filed as in vivo. The source says: The following examples were used to determine the synergy of Bacillus thuringiensis subsp. aizawai, Bacillus thuringiensis subsp. kurstaki and cyantraniliprole when controlling diamondback moth, beet armyworm, sugarcane borer, soybean looper, corn earworm, cabbage looper, and southwestern corn borer. Sympatico™ emulsifiable suspension (available from Valent BioSciences LLC) was used as the source of Bacillus thuringiensis subsp. aizawai and Bacillus thuringiensis kurstaki. Sympatico™ contains about a 1:0.67 ratio of Bacillus thuringiensis subsp. kurstaki fermentation solids, spores and toxins to Bacillus thuringiensis subsp. aizawai fermentation solids, spores and toxins. Belt® was used as the source of cyantraniliprole. The present invention is not limited to the commercial products used in the examples. […]
For these tests, standardized laboratory leaf dip methods were used to inoculate plant material with treatment(s). […] Synergy ratings were calculated for each test. […]
In order to determine synergy, rates below normal field rate ranges must be used. If normal field rate ranges are used, all of the larvae would die (combining a lethal or near lethal dose of Bacillus thuringiensis subsp. aizawai and Bacillus thuringiensis subsp. kurstaki with a lethal dose of cyantraniliprole would most likely lead to larvae death) in every treatment and synergy would not be able to be determined. […]

Assay [4] deals with cabbage looper larvae. Briefly: Leaf dip test, cabbage looper larvae. It is filed as in vivo. Conditions: Trichoplusia ni, foliar, Bta/Btk 0.8125 ppm, cyantraniliprole 0.50 ppm, mixture 0.8125 ppm + 0.50 ppm (Ratio 1:0.62), read-out: % Efficacy.
Experimental: (§4) Sympatico™ emulsifiable suspension (available from Valent BioSciences LLC) was used as the source of Bacillus thuringiensis subsp. aizawai and Bacillus thuringiensis kurstaki. Sympatico™ contains about a 1:0.67 ratio of Bacillus thuringiensis subsp. kurstaki fermentation solids, spores and toxins to Bacillus thuringiensis subsp. aizawai fermentation solids, spores and toxins. Belt® was used as the source of cyantraniliprole. […] In each example below, the studies were conducted as follows.
as §1
(§5) % Cexp=A+B−(AB/100), where % Cexp is the expected efficacy and “in which A and B are the control levels given by the single [insecticides].
In this study, the response of cabbage looper larvae to amounts of Bacillus thuringiensis subsp. aizawai, Bacillus thuringiensis subsp. kurstaki and cyantraniliprole was observed.
Bacillus thuringiensis subsp. aizawai/Bacillus thuringiensis subsp. kurstaki was applied at a concentration of 0.8125 ppm (0.8125 μg/ml). […]
Assay [5] deals with soybean looper larvae. Briefly: Leaf dip test, soybean looper larvae. It is filed as in vivo, Chrysodeixis includens. The following applies: foliar, Bta/Btk 0.26 ppm, cyantraniliprole 1.0 ppm, mixture 0.26 ppm + 1.0 ppm (Ratio 1:15), read-out: % Efficacy.
Experimental: Belt® was used as the source of cyantraniliprole. […] In each example below, the studies were conducted as follows.
as §1, §5
In this study, the response of soybean looper larvae to Bacillus thuringiensis subsp. aizawai, Bacillus thuringiensis subsp. kurstaki and cyantraniliprole was observed.
Bacillus thuringiensis subsp. aizawai/Bacillus thuringiensis subsp. kurstaki was applied at a concentration of 0.26 ppm (0.26 μg/ml). Cyantraniliprole was applied at a concentration of 1.0 ppm (1.0 μg/ml). The Bacillus thuringiensis subsp. aizawai/Bacillus thuringiensis kurstaki/cyantraniliprole mixture was applied at a concentration of 0.26 ppm Bacillus thuringiensis subsp. aizawai/Bacillus thuringiensis subsp. kurstaki and 1.0 ppm cyantraniliprole.
The subject of assay [6] is southwestern corn borer larvae. Briefly: Leaf dip test, southwestern corn borer larvae. It is filed as in vivo, Diatraea grandiosella. The following applies: foliar, Bta/Btk 0.8125 ppm, cyantraniliprole 0.1 ppm, mixture 0.8125 ppm + 0.1 ppm (Ratio 1:0.12), read-out: % Efficacy.
Text: as §2, §1, §3
Assay [7] has as its system beet armyworm larvae. Briefly: Leaf dip test, beet armyworm larvae. It is filed as in vivo. The following applies: Spodoptera exigua, foliar, Bta/Btk 0.8125 ppm, cyantraniliprole 1.0 ppm, mixture 0.8125 ppm + 1.0 ppm (Ratio 1:1.23), read-out: % Efficacy.
Experimental: as §4, §1, §5
Bacillus thuringiensis subsp. aizawai/Bacillus thuringiensis subsp. kurstaki was applied at a concentration of 0.8125 ppm (0.8125 μg/ml). Cyantraniliprole was applied at a concentration of 1.0 ppm (1.0 μg/ml). […]

Where two headings read alike, the source gives them in different places.

With `CNC(=O)c1cc(C#N)cc(C)c1NC(=O)c1cc(Br)nn1-c1ncccc1Cl` [Cyantraniliprole, 3-Bromo-1-(3-chloro-2-pyridinyl)-N-[4-cyano-2-methyl-6-(methylcarbamoyl)phenyl]-1H-pyrazole-5-carboxamide], the Emax at 10 ppm worked out at 44% in assay [1] (24 h after treatment) and 60% in assay [1] (48 h after treatment). Besides, the Emax at 1 ppm worked out at 24% in assay [2] (24 h after treatment); 35% in assay [2] (48 h after treatment); 12% in assay [5] (24 h after treatment); 41% in assay [5] (48 h after treatment); 20% in assay [7] (24 h after treatment); 35% in assay [7] (48 h after treatment). Besides, the figures for the Emax at 0.12 ppm in assay [3] (24 h after treatment) and in assay [3] (48 h after treatment) were 29% and 52%, respectively. In addition, the results for the Emax at 0.5 ppm in assay [4] (24 h after treatment) and in assay [4] (48 h after treatment) were 18% and 40%, respectively. For the same compound, the Emax at 0.1 ppm came to 15% in assay [6] (24 h after treatment) and 32% in assay [6] (48 h after treatment).
